Data taken from PMC7885111, “ApmA Is a Unique Aminoglycoside Antibiotic Acetyltransferase That Inactivates Apramycin” (mBio, 2021).

Experiments:
ApmA [1] = target: T1, ApmA (Staphylococcus aureus, UniProt A0A1D0AST6); test: X-ray crystallography ([…] A); assay type: binding; settings: acetyl donor; crystals: 0.1 M citric acid pH 3.6, 30% PEG 200, 5 mM apramycin, 2 mM acetyl-CoA
T1 construct: full length, residues 1-274 described; synthetic gene in pET19b-TEV, E. coli BL21(DE3) host; N-terminal His10 tag cut by TEV for crystals; SeMet form also made; trimer
T1 sequence (A0A1D0AST6 entry or part of it): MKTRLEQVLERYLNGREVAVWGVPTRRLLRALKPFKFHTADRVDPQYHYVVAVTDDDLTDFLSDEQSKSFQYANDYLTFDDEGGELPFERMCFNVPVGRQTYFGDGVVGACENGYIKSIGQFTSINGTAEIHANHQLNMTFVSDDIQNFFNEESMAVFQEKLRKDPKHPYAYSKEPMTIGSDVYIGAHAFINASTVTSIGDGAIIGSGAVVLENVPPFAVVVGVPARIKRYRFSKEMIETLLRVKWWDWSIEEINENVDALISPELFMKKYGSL

ApmA [2] = target: T1, ApmA; test: X-ray crystallography ([…] A); acetylation product shown by HR-ESI-MS and NMR; assay type: binding; settings: crystals: 0.2 M CaCl (so in the source), 20% PEG 3350, 5 mM apramycin; turnover: 500 uM acetyl-CoA, pH 7.5, room temperature; acetylated at 2'-NH2; PDB id printed as 7J6M2 (typo for 7JM2)

CC(=O)SCCNC(=O)CCNC(=O)[C@H](O)C(C)(C)COP(=O)(O)OP(=O)(O)OC[C@H]1O[C@@H](n2cnc3c(N)ncnc32)[C@H](O)[C@@H]1OP(=O)(O)O [acetyl-CoA]
X-ray crystallography (2.30 A) (ApmA [1]): 7JM1 (ApmA complex with acetyl-CoA)

CN[C@@H]1[C@@H](O[C@H]2O[C@H](CO)[C@@H](N)[C@H](O)[C@H]2O)O[C@H]2C[C@@H](N)[C@@H](O[C@H]3[C@H](O)[C@@H](O)[C@H](N)C[C@@H]3N)O[C@@H]2[C@@H]1O [apramycin]
X-ray crystallography (1.85 A); acetylation product shown by HR-ESI-MS and NMR (ApmA [2]): Crystals of the apoenzyme and ApmA in complex with apramycin or acetyl-CoA were obtained
